The values below come from patent publication US20090239880A1, “COMBINATIONS OF MONOAMINE REUPTAKE INHIBITORS AND POTASSIUM CHANNEL ACTIVATORS” (priority 2006, published 2009).

The melting point is the temperature of the solid-liquid transition.

Structures can show the parent of a compound that is named as a salt.

One data set deals with NMRI mice. Description: reversal of tetrabenazine-induced ptosis. The format is in vivo. As to conditions: test compound 0.3-3 mg/kg i.p. combined with sub-threshold reboxetine 0.1 mg/kg p.o. at -60 min, tetrabenazine 40 mg/kg i.p. at -30 min. Here is the method: Method: Mice were administered the test compound (0.3-3 mg/kg, i.p.) and reboxetine (0.1 mg/kg, p.o.) at timepoint −60 min, followed by tetrabenazine (40 mg/kg, i.p., −30 min). The presence of ptosis was then scored by a trained observer using a recognised rating scale: maximum score/mouse=4, minimum score/mouse=0.
For `N=c1n(Cc2ccc(F)c(F)c2)c2ccccc2n1Cc1ccc(F)c(F)c1` [test compound, 1,3-Bis-(3,4-difluoro-benzyl)-1,3-dihydro-benzoimidazol-2-ylideneamine], the “effect on ability of reboxetine to reverse tetrabenazine-induced ptosis (ptosis score)” value is recorded as “enhanced the ability of the latter to reverse tetrabenazine-incuced ptosis”.

The next data set relates to NMRI mice. Kind of data set: nialamide induced 5-HT syndrome paradigm. It counts as in vivo. As to conditions: nialamide 50 mg/kg s.c. at -120 min, test compound 0.3-3 mg/kg i.p. combined with sub-threshold citalopram 1 mg/kg p.o. at 0 min. Here is the method: Method: Mice were administered nialamide (50 mg/kg, s.c., −120 min) followed by the test compound (0.3-3 mg/kg, i.p.) and citalopram (1 mg/kg, p.o) at time-point 0 min. The presence of head twitches, hindlimb abduction, head weaving, and piano playing behaviours were then scored by a trained observer using a recognised rating scale: maximum score/mouse=4, minimum score/mouse=0.
For the molecule `N=c1n(Cc2ccc(F)c(F)c2)c2ccccc2n1Cc1ccc(F)c(F)c1` [test compound, 1,3-Bis-(3,4-difluoro-benzyl)-1,3-dihydro-benzoimidazol-2-ylideneamine], the “effect on ability of citalopram to induce symptoms analagous to the serotonin syndrome (5-HT syndrome score)” value is given as “enhanced the ability of the latter to induce symptoms analagous to the serotonin syndrome”.

In the next data set the target is SK3 channels (Homo sapiens, UniProt Q9UGI6). Kind of data set: inhibition of SK3 channels in patchclamp electrophysiology (selectivity over monoamine reuptake in vitro). It counts as cell-based. As to conditions: patchclamp electrophysiology vs [3H]DA, [3H]5-HT and [3H]NA reuptake in vitro. On the technique in general: Patch clamp records ionic current or voltage across a cell membrane.
For `N=c1n(Cc2ccc(F)c(F)c2)c2ccccc2n1Cc1ccc(F)c(F)c1` [test compound, 1,3-Bis-(3,4-difluoro-benzyl)-1,3-dihydro-benzoimidazol-2-ylideneamine], the “selectivity for inhibition of SK3 channels over inhibiton of [3H]DA, [3H]5-HT and [3H]NA reuptake” value was “more than 100 fold”.

Tested on in the next data set: not given
Test: not given
Conditions: not given
For `Fc1ccc(C(c2ccc(F)cc2)N2CCN(c3nc4ccccc4[nH]3)CC2)cc1` (as salt: hydrochloride) [Example 9, 2-{4-[Bis-(4-fluorophenyl)methyl]piperazin-1-yl}-1H-benzoimidazole], the melting point was > 240 °C (dec.).

For `Clc1ccc(OC2CCN(c3nc4ccccc4[nH]3)CC2)cc1Cl` (as salt: hydrochloride) [Example 10, 2-[4-(3,4-Dichlorophenoxy)piperidin-1-yl]-1H-benzoimidazole], the melting point is 297 to 298 °C.

On to `Clc1ccc(CC2CCN(c3nc4ccccc4[nH]3)CC2)cc1Cl` (as salt: salt) [Example 1, 2-[4-(3,4-Dichlorobenzyl)piperidin-1-yl]-1H-benzoimidazole], for which the melting point was in the range of 268 to 270 °C.

For `c1ccc(CC2CCN(c3nc4ccccc4[nH]3)CC2)cc1` [Example 2, 2-(4-Benzylpiperidin-1-yl)-1H-benzoimidazole], the melting point is 193 to 194 °C.

The molecule `OC(c1ccccc1)(c1ccccc1)C1CCN(c2nc3ccccc3[nH]2)CC1` [Example 3, [1(1H-Benzoimidazol-2-yl)-piperidin-4-yl]diphenylmethanol] showed a melting point of 237 to 239 °C.

Molecule `FC(F)(F)c1cc(Cn2c(N3CCC(Cc4ccccc4)CC3)nc3ccccc32)ccc1Cl` [Example 4, 2-(4-Benzylpiperidin-1-yl)-1-[4-chloro-3-(trifluoromethyl)benzyl]-1H-benzoimidazole] returned a melting point of 124 to 125.5 °C.

Consider `Fc1ccc(Cn2c(N3CCC(Cc4ccccc4)CC3)nc3ccccc32)cc1F` [Example 5, 2-(4-Benzylpiperidin-1-yl)-1-(3,4-difluorobenzyl)-1H-benzoimidazole], for which the melting point was 155 to 155.5 °C.

On to `c1ccc(C(c2ccccc2)N2CCN(c3nc4ccccc4[nH]3)CC2)cc1` [Example 6, 2-(4-Benzhydrylpiperazin-1-yl)-1H-benzoimidazole], for which the melting point is > 230 °C (dec.).

With `c1ccc(C(=C2CCN(c3nc4ccccc4[nH]3)CC2)c2ccccc2)cc1` [Example 12, 2-(4-Benzhydrylidene-piperidin-1-yl)-1H-benzoimidazole], the melting point was 229 to 230 °C.

Take `c1ccc(C(c2ccccc2)C2CCN(c3nc4ccccc4[nH]3)CC2)cc1` [Example 13, 2-(4-Benzhydryl-piperidin-1-yl)-1H-benzoimidazole]: the melting point was in the range of 256 to 258 °C.
